Reference: patent US4233309A, “Novel 1-substituted-3-acylpyrrole derivatives, platelet aggregation inhibitors containing them, as active ingredients, and processes for production of said derivatives” (Teijin Limited, priority 1977, dated 1980)
Like-named read-outs stand apart in the source and are kept apart here.

Legend:
[1] = tested on: platelet aggregation (guinea pig PRP, extra vivo); experiment: Inhibitory effect of compounds on platelet aggregation in extra vivo (Table 4); design: species or system Hartley-strain guinea pigs; settings: Cavia porcellus, 100 mg/kg, route PS [sic], 1 h
Experimental: The effect of the compounds shown in Table 4 on platelet aggregation was assessed using guinea pig in extra vivo.
Each of the test compounds was dissolved in propylene glycol so that its concentration became 100 mg/ml (dosage corresponded to 100 mg/kg) and 30 mg/ml (dosage corresponded to 30 mg/kg). The drug solution was administered either orally or subcutaneously to Hartley-strain guinea pigs (3 per group) having a body weight of 300 to 350 g. As a control, propylene glycol was administered. One hour after the administration, citrated blood was taken out by cardiac puncture, and centrifuged to obtain PRP (see Example 67).
In the case of oral administration, the animals had been fasted overnight.
Into a quvett set in a holder of an aggregometer and prewarmed at 37° C. with stirring, was put 450 μl of the above PRP, and then 50 μl of an aggregating agent was added. The aggregation curve was recorded for an additional 3 minutes, and an increase in light transmittance through PRP after 3 minutes (TB) was recorded (see Example 67). As a control, an increase of transmittance of PRP taken from a guinea pig group administered with propylene glycol alone (TA) was recorded in the same way above. The percent inhibitions were calculated in accordance with the following equation. [formula]
As the aggregating agent, sodium arachidonate (a final concentraton of 0.03 mM) and a collagen suspension (a final concentration of 5 μg/ml) were used.
The percent inhibitions in the above table are averages of three guinea pigs. For details of the above extra vivo test about inhibition of platelet aggregation, the literature references described in Example 67 may be referred to.

[2] = tested on: carrageenan edema; experiment: Antiinflammatory activity (carrageenan edema of rat paw, Table 5); format: in vivo, Sprangue-Dawley (SD) male rats; settings: 100 mg/kg orally, 3 h after 1% carrageenan
Experimental: Sprangue-Dawley (SD) male rats with a body weight of 160 to 180 g, four in each group, were used. The volume of the left leg was measured, and each of the test compounds shown in Table 5 (100 mg/kg dissolved in polyethylene glycol so as to provide a volume of 2 ml/kg) was orally administered. One hour later, 0.1 ml of 1% carrageenan (dissolved in physiological saline) as an inflammation-inducing substance was subcutaneously injected to the paw of the left hind leg. A control group was orally administered with 2 ml/kg of polyethylene glycol. As a positive control, 25 mg/kg of Ibprofen was similarly administered. Three hours after the injection of 1% carrageenan, the volume of the left leg was measured, and the ratio of edema was calculated from the volume before the administration of the carrageenan. The percent inhibition of edema in comparison with the control group was determined.

[3] = tested on: biosynthesis of prostaglandins (microsomes of the seminal vesicle of bovine); experiment: Inhibitory effect on prostaglandin biosynthesis in vitro (Table 3); format: biochemical; settings: 4 μg/ml sodium arachidonate, bioassay on rat fundus stomach strips
Experimental: Sprangue-Dawley rats (male, 180-200 g) were fasted overnight, and killed by blow on the head. The stomach was isolated, and fundus stomach strips were prepared. The smooth muscle strips were perfused with Krebs-Hensleit solution (gassed with 95% O2 +5% CO2 gas) of 37° C. at a rate of […]. The Krebs-Hensleit solution contained 0.1 μg/ml of atropine, 0.1 μg/ml of phenoxybenzamine, 3 μg/ml of propranolol, 0.1 μg/ml of tripelennamine, and 0.2 μg/ml of methylsergide to prevent the effect of smooth muscle contracting substances, and 1 μg/ml of indomethacine to inhibit the biosynthesis of prostaglandin by the smooth muscles. Then, 150 μl of a reaction solution containing biologically synthesized prostaglandin was added to the perfusion solution, and the amount of the biologically synthesized prostaglandin was measured from the contraction of the smooth muscles. The contraction of the smooth muscles was recorded on a recorder using an isotonic transducer.
The reaction solution containing biologically synthesized prostaglandin was prepared in the following manner.
To 0.4 mg/ml of microsomes of the seminal vesicle of bovine were added 5 mM of L-tryptophan, 0.025 μM of bovine hemoglobin and 3 mμ of glutathione as cofactors. The mixture was incubated together with each of the test compounds shown in Table 4 at 37° C. for 2 minutes, and immediately then, 4 μg/ml of sodium arachidonate was added. The mixture was further incubated at 37° C. for 10 minutes, and immediately then, the prostaglandin activity of the reaction solution was measured by bioassay.
The microsomes of the seminal vesicle of bovine had been prepared by suspending microsomes of the seminal vesicle of bovine (a product of Miles Laboratories, Inc.) in a 50 mM Tris.HCl buffer (pH 7.4) using a glass homogenizer, and stored in ice water prior to use.
ID50 denotes the concentration of each test compound required to inhibit the biosynthesis of prostaglandins by 50%.

[4] = tested on: platelet aggregation (platelet-rich plasmas (PRP) of guinea pigs); experiment: Activity of inhibiting platelet aggregation in vitro, guinea pig PRP, sodium arachidonate as aggregating agent (Table 1); format: cell-based, Hartley-strain male guinea pigs; settings: Cavia porcellus, sodium arachidonate 0.03 mM final, 37° C., final concentration, read-out: IC50 (minimum concentration of drug which showed a percent inhibition of more than 50%)
Experimental: Some 1-substituted-3-acylpyrrole derivatives and other drugs were tested for platelet aggregation inhibiting activities in vitro using platelet-rich plasmas (PRP) of man and guinea pigs. The results are shown as minimum concentration of drugs which inhibit more than 50% of platelet aggregation induced by several aggregating agents.
In experiments with PRP of guinea pigs, sodium arachidonate (final concentration 0.03 mM) was used as an aggregating agent. In experiments with human PRP, sodium arachidonate (final concentration 0.1 mM), collagan suspension (final concentration 10 μg/ml), epinephrine solution (final concentration 20 μg/ml; for secondary aggregation), an epinephrine solution (final concentration 2 μg/ml; for primary aggregation) and ADP (final concentration 5 μM) were used as aggregating agents.
In an experiment with guinea pig PRP, citrated blood (containing 0.38% sodium citrate as a final concentration) was withdrawn by cardiac puncture from Hartley-strain male guinea pigs having a body weight of 350 to 600 g. The citrated blood was centrifuged at 1,000 rpm for 10 minutes at room temperature, and the supernatant platelet suspension (PRP) was separated.
The PRP was stored at room temperature, and used as soon as possible. Those which had been stored for more than 4 hours after preparation were not used.
For each test, a drug is dissolved in dimethylsulfoxide to a concentration of 10 mg/ml, and diluted with physiological saline to form 1 ml each of solutions having a concentration of 2500 μg/ml, 1000 μg/ml, 750 μg/ml, 500 μg/ml, 250 μg/ml and 100 μg/ml. A compound having a free carboxylic acid as a residue such as indomethacine and Ibprofen was dissolved in 0.1 M NaHCO3 to form a sodium salt solution having a concentration of 10 mg/ml. Then, the solution was diluted with physiological saline in the same way as above to form a test drug solution.
Arachidonic acid (99% pure, a product of Sigma Co., Ltd.) was dissolved in 0.1 M NaHCO3, and a 3.3 mM solution of sodium arachidonate was prepared. The solution was diluted with physiological saline to a concentration of 1 mM and used in the experiments. The 3.3 mM solution was stored in a refrigerator as a stock solution, and the 1 mM solution was newly prepared from the stock solution every time it was used.
Physiological saline (50 μl) and 50 μl of the aggregating agent solution were added to 400 μl of PRP which had been pre-warmed and stirred at 37° C. in a quvett set in a holder of an aggregometer. Platelet aggregation was thus initiated, and the change of light transmittance through a stirred platelet suspension was recorded for 3 minutes by a recorder joined to the aggregometer. An increase in transmittance after 3 minutes (T0) was used as a parameter of the rate of platelet aggregation in control experiments.
To 400 μl of PRP in a quvett was added 50 μl of a test drug solution. The mixture was pre-incubated and stirred for 2 minutes at 37° C. Then 50 μl of the aggregating agent was added to drug containing PRP and again aggregation responses were recorded as increases in light transmittance after 3 minutes (T1) in the same way as in (1) above. Percent inhibition was calculated from the formula [formula]
For the above in vitro test for the inhibition of platelet aggregation, reference may be had to H. M. Davis, J. Phyllis, K. Paul and W. Terry: Thromb. Res. 11, 217-226 (1977) and R. E. Anderson and J. G. Foulks: Thromb. Haemos. 36, 343-359 (1976).

SMILES: CC(=O)OCC(C)n1c(C)cc(C(=O)c2ccccc2)c1C (centres unmarked) [Compound 306, 2-(3-benzoyl-2,5-dimethylpyrrol-1-yl)-2-methylethyl acetate]
- inhibition at 100 mg/kg ([1]; collagen 5 μg/ml, read-out: Percent inhibition of platelet aggregation, collagen): 34%
- inhibition at 100 mg/kg ([1]; sodium arachidonate 0.03 mM, read-out: Percent inhibition of platelet aggregation, sodium arachidonate): 62%
- Percent inhibition of edema [2]: 16%
- ID50 (concentration required to inhibit the biosynthesis of prostaglandins by 50%) [3]: 5.6 µg/mL
- IC50 [4]: 7.5 µg/mL
